Reference: patent US20060205642A1, “Oral methods of treatment using proANF peptides” (priority 2005, published 2006)
“Also recorded” adds a separate entry of the source.

Tests used:
[1] = target: particulate guanylate cyclase of porcine aorta and cultured smooth muscle cells (porcine)
[2] = tested on: porcine aortas; assay: Vasodilation of porcine aortic strips preconstricted with 0.3 micromolar phenylephrine
Method: 30 Kg pigs are sacrificed, and aortic strips are harvested. The strips are attached to F-60 transducer (Narco-BioSystems, Houston, Tex.) and attached to a physiography (Narco-BioSystems) while being submerged in a muscle tissue bath comprising a Krebs Ringer solution at 37° C., with 95% O2-5% CO2, bubbled through the bath. Percentage vasodilation is measured versus time after preconstriction with 0.3 micromolar phenylephrine. […] (Vesely et al., Biochem. Biophys. Res. Commun. 148:1540-1548, 1987).

[3] = Rat clearance model (diuresis and salt excretion); assay type: in vivo, Munich-Wistar rats; details: for FENa, fractional excretion of sodium / UNa, urinary sodium / UNaV, urinary sodium excretion rate / V, urine flow rate: means ± SE
Method: The same three peptides and ANF from Example I are tested using the rat clearance model. Six control rats and six experimental Munich-Wistar rats, each weighing 150-200 grams, are used for each peptide, with catheters being placed in both jugular veins and in the femoral artery. The ureters are cannulated for simultaneous urine collections with femoral artery blood collections.
After inserting the catheters, a stabilization of one hour is allowed. A 10 μg/kg bolus of each of the respective human sequences of the peptides is given via the jugular vein to six experimental rats followed by a sustaining infusion of 0.1 μg/kg/min for 60 minutes. Blood and urine samples are collected at 20 minute intervals during this 60 minute infusion. In both the control and experimental animals, hematocrits and plasma sodium values remained at the same levels pre- and post-infusion while blood pressure decreased with each of these peptides (see Attachment B).

[4] = tested on: prostaglandin E2 (PGE2) synthesis; assay: Prostaglandin E2 synthesis (FIG. 8); assay type: biochemical; details: n=6, ANOVA and Duncan's MRT
[5] = tested on: particulate guanylate cyclase; assay: Particulate guanylate cyclase activity in the kidney; assay type: biochemical; details: 1 μM; whole kidney homogenates, renal cortical and medullary membranes, isolated distal nephrons
Method: Testing is also carried out to determine biologic effects of these peptides by measuring their effects on particulate guanylate activity in the kidney.

[6] = tested on: renal medullary Na+-K+-ATPase; assay: Inhibition of renal medullary Na+-K+-ATPase activity (FIG. 9); assay type: biochemical; details: for inhibition of renal medullary Na+-K+-ATPase activity: 10^-11 M, n=6, ANOVA
From the text: FIG. 9. Inhibition of renal medullary Na+-K+-ATPase activity by proANF 79-98 (kaliuretic peptide), proANF 1-30 (long acting natriuretic peptide), proANF 31-67 (vessel dilator), and angiotensin II at their […] concentrations.

[7] = Infusion into human subjects with Class III NYHA congestive heart failure; assay type: in vivo, humans; details: for enhancement of sodium excretion: CHF subjects, 100 ng/kg body weight/min for 60 minutes
Method: Human proANF's 1-30, 31-67, 79-98, and 99-126 (i.e., ANF) were infused into human subjects with Class III New York Heart Association congestive heart failure (CHF). An identical protocol to that used in example V where these peptides were infused into healthy human subjects was utilized. (See Attachment C and F for a detailed description of this protocol). The human subjects with congestive heart failure received an identical dose (0.1 μg/kg body wt/minute for 60 minutes) that the healthy human subjects received. […] This striking urine output secondary to proANF 31-67 was significant at P<0.0001 compared to the pre-infusion output of the congestive heart failure subjects (n=6).

[8] = Infusion into healthy human subjects; assay type: in vivo; details: healthy humans; for potassium excretion: 100 ng/kg body wt; for increase in urine volume (in words): 100 ng/kg body wt per minute for 1 hour i.v., n=6, ANOVA; for sodium excretion (in words): 100 ng/kg body wt per minute for 60 minutes, vs baseline; for systolic and diastolic blood pressures: 100 ng/kg body wt per minute i.v. for 60 min, n=6
Method: Infusion of these peptides into healthy human subjects was performed as follows: Human pro-ANF 1-30, pro-ANF 31-67, and pro-ANF 79-98, and hANF (i.e., pro-ANF 99-126, were synthesized by Peninsula Laboratories (Belmont, Calif.). High pressure liquid chromatography (HPLC) analysis was performed on a sample of each of the four peptides to ensure purity. The peptides were dissolved in a sterile 0.9% saline solution to a concentration of 100 μg/ml and dispensed in 2 and 5 ml aliquots into sealed sterile vials. At the time of dispensing, randomly selected vials were tested for pyrogens and sterility. Prior to labeling the vials, the actual peptide content of the dispensed solution were determined by direct radioimmunoassay to account for any possible absorption of the respective peptides to the walls of the vials. All vials were then stored at −80° C. until thawed for individual study.
Normal healthy subjects were chosen on the basis of age (between 20 and 50 years), physical examination and biochemical screenings. The subjects consumed their normal diets prior to testing. The subjects fasted overnight and were tested in the morning in the seated position. Intravenous catheters were placed bilaterally for the administration of pro-hANF 1-30, pro-hANF 31-67, pro-hANF 79-98 and hANF (pro-hANF 99-126) and for blood sampling. After completion of a 45-minute equilibration period, there were three […] phases of the study: baseline, experimental infusion (60 minutes) and recovery (3 hours). The baseline phase consisted of two 30 minute urine collection periods, the experimental phase consisted of three 20 minute urine and plasma collection periods, and the recovery phase consisted of two 30 minute urine and plasma collection periods each hour for three hours post-infusion. Urine output was replaced on a milliliter per milliliter basis throughout the study by administering oral water or orange juice. Urine samples were obtained by voiding at the designated collection periods.
The 36 subjects were divided into 6 groups. One group (i.e., the control group) received a placebo infusion of 0.9% sodium chloride during the experimental infusion phase. […] The four remaining groups of six subjects each received human pro-hANF 1-30, pro-hANF 31-67, pro-hANF 79-98 and HANF. The four groups received the peptides by continuous infusion at the rate of 0.1 μg/kg per minute. The volume administered per hour during the experimental infusion phase was 10 ml for all four peptides and the placebo. All infusions were given by a constant-rate infusion pump, with the final concentrations of prohANFs adjusted for the subjects' body weight. The subjects heart rate and cuff blood pressure were taken at 5 minute intervals throughout the study. The excreted urine was analyzed for sodium concentration.

[9] = tested on: particulate guanylate cyclase; assay: Cyclic GMP / particulate guanylate cyclase activation in cultured smooth muscle cells and porcine aorta; assay type: cell-based; details: for concentration of maximal activation of guanylate cyclase activity / EC50: porcine aorta and isolated smooth muscle cells; for EC50: read-out: half maximal activation (ED5o) of guanylate cyclase
[10] = A, control period (before peptide)
[11] = B, first 60-minute experiment period, 10 μg/kg bolus then 0.1 μg/kg/min via jugular vein
[12] = B, first 60-minute experiment period, 10 μg/kg bolus then 0.1 μg/kg/min
[13] = C, second 60-minute experimental period, 10 μg/kg bolus then 0.1 μg/kg/min
[14] = C, second 60-minute experimental period

human atrial natriuretic factor (ANF) (peptide)
half maximal activation (ED50) of guanylate cyclase activity [1]: 10 nM

H-SSDRSALLKSKLRALLTAPR-OH [proANF 79-98]
increase in cyclic GMP levels over baseline levels associated with vasodilation [2]: four-to-five fold
FENa, fractional excretion of sodium [3, 10]: 0.030 ± 0.024%
UNa, urinary sodium [3, 10]: 42.27 ± 24.68 meq/1
UNaV, urinary sodium excretion rate [3, 10]: 90.88 ± 77.76 μeq · min^−1 · g kidney wt^−1
V, urine flow rate [3, 10]: 2.62 ± 0.70 μl · min^−1 · g kidney wt^−1
V, urine flow rate [3, 11]: 4.75 ± 1.57 μl · min^−1 · g kidney wt^−1
FENa, fractional excretion of sodium [3, 12]: 0.200 ± 0.152%
UNa, urinary sodium [3, 12]: 63.30 ± 22.11 meq/1
UNaV, urinary sodium excretion rate [3, 12]: 363.98 ± 261.85 μeq · min^−1 · g kidney wt^−1
V, urine flow rate [3, 13]: 5.16 ± 1.04 μl · min^−1 · g kidney wt^−1
FENa, fractional excretion of sodium [3, 14]: 0.368 ± 0.273%
UNa, urinary sodium [3, 14]: 92.53 ± 29.17 meq/1
UNaV, urinary sodium excretion rate [3, 14]: 564.22 ± 315.48 μeq · min^−1 · g kidney wt^−1
potassium excretion ([3]; rat clearance model): very significant stimulator of potassium excretion
sodium excretion (in words) ([3]; rat clearance model): does not significantly increase sodium excretion
prostaglandin E2 (PGE2) synthesis [4]: increase prostaglandin E2 (PGE2) synthesis
particulate guanylate cyclase activity [5]: enhance
inhibition of renal medullary Na+-K+-ATPase activity [6]: significant at P<0.01
hypotension ([7]; CHF patients): None became hypotensive
enhancement of sodium excretion [7]: 3 fold
increase of urine flow (maximal) ([7]; NYHA class III CHF, 100 ng/kg body weight/min i.v. for 60 minutes, P<0.001): 4 fold
effects in persons with CHF compared to healthy individuals ([7]; diuretic and natriuretic effects): not blunted in persons with CHF but rather are increased compared to healthy individuals
potassium excretion [8]: significant (P<0.05)
increase in urine volume (in words) [8]: significant
sodium excretion (in words) ([8]; listed as ProANF 79-98): does not have natriuretic effects in healthy humans
systolic and diastolic blood pressures [8]: significant
potassium excretion ([8]; listed as ProANF 79-98): strongest stimulator of potassium excretion of any of the atrial peptides; also recorded: significant (P<0.01) enhancer of potassium excretion
increase in urine flow ([8]; infusion): 2 fold
cyclic GMP levels in cultured smooth muscle cells [9]: increase cyclic GMP levels
concentration of maximal activation of guanylate cyclase activity [9]: about 1 μM
EC50 [9]: ~10 nM

H-NPMYNAVSNADLMDFKNLLDHLEEKMPLED-OH [proANF 1-30]
increase in cyclic GMP levels over baseline levels associated with vasodilation [2]: four-to-five fold
FENa, fractional excretion of sodium [3, 10]: 0.023 ± 0.002%
UNa, urinary sodium [3, 10]: 34.13 ± 10.98 meq/1
UNaV, urinary sodium excretion rate [3, 10]: 36.37 ± 8.09 μeq · min^−1 · g kidney wt^−1
V, urine flow rate [3, 10]: 1.83 ± 0.27 μl · min^−1 · g kidney wt^−1
V, urine flow rate [3, 11]: 3.41 ± 0.48 μl · min^−1 · g kidney wt^−1
FENa, fractional excretion of sodium [3, 12]: 0.241 ± 0.101%
UNa, urinary sodium [3, 12]: 64.83 ± 12.93 meq/1
UNaV, urinary sodium excretion rate [3, 12]: 224.30 ± 60.34 μeq · min^−1 · g kidney wt^−1
V, urine flow rate [3, 13]: 4.31 ± 0.84 μl · min^−1 · g kidney wt^−1
FENa, fractional excretion of sodium [3, 14]: 0.285 ± 0.094%
UNa, urinary sodium [3, 14]: 89.50 ± 19.82 meq/1
UNaV, urinary sodium excretion rate [3, 14]: 384.98 ± 124.39 μeq · min^−1 · g kidney wt^−1
prostaglandin E2 (PGE2) synthesis [4]: increase prostaglandin E2 (PGE2) synthesis
particulate guanylate cyclase activity [5]: enhance
inhibition of renal medullary Na+-K+-ATPase activity [6]: significant at P<0.01
increase of fractional excretion of sodium ([7]; CHF individuals): 3 fold
enhancement of sodium excretion [7]: three-to-eight fold
hypotension ([7]; human, in vivo): None became hypotensive
time after stopping infusion for which diuresis / urine flow is still significantly elevated (P<0.01) ([7]; humans with congestive heart failure, listed as Pro ANF's 1-30): ≥ 3 h
duration of sodium excreting effects compared to ANF [8]: significantly (P<0.001) prolonged compared to ANF
potassium excretion [8]: significant (P<0.05)
increase in urine volume (in words) [8]: significant
sodium excretion (in words) [8]: significantly (P<0.05) increased
systolic and diastolic blood pressures [8]: significant
duration of sodium excreting effects compared to ANF ([8]; listed as ProANF 1-30): last significantly (P<0.001) longer than ANF's effects
cyclic GMP levels in cultured smooth muscle cells [9]: increase cyclic GMP levels
concentration of maximal activation of guanylate cyclase activity [9]: about 1 μM
EC50 [9]: ~10 nM

COc1ccc2cc([C@H](C)C(=O)O)ccc2c1 [Naproxen, reference compound]
blockade of the peptides' effects on renal medullary Na+-K+-ATPase ([6]; 0.5 mM): completely blocked

CC[C@H](C)[C@@H]1NC(=O)[C@H](CCCNC(=N)N)NC(=O)[C@H](CC(=O)O)NC(=O)[C@H](CCSC)NC(=O)[C@H](CCCNC(=N)N)NC(=O)CNC(=O)CNC(=O)[C@H](Cc2ccccc2)NC(=O)[C@@H](NC(=O)[C@H](CO)NC(=O)[C@H](CO)NC(=O)[C@H](CCCNC(=N)N)NC(=O)[C@H](CCCNC(=N)N)NC(=O)[C@H](CC(C)C)NC(=O)[C@@H](N)CO)CSSC[C@@H](C(=O)N[C@@H](CC(N)=O)C(=O)N[C@@H](CO)C(=O)N[C@@H](Cc2ccccc2)C(=O)N[C@@H](CCCNC(=N)N)C(=O)N[C@@H](Cc2ccc(O)cc2)C(=O)O)NC(=O)CNC(=O)[C@H](CC(C)C)NC(=O)CNC(=O)[C@H](CO)NC(=O)[C@H](CCC(N)=O)NC(=O)[C@H](C)NC(=O)CNC1=O [ANF, reference compound]
hypotension ([7]; human, in vivo): became hypotensive

angiotensin II [reference compound]
inhibition of renal medullary Na+-K+-ATPase activity [6]: significant at P<0.01

H-EVVPPQVLSEPNEEAGAALSPLPEVPPWTGEVSPAQR-OH [human pro-ANF 31-67]
half maximal activation (ED50) of guanylate cyclase activity [1]: 10 nM

H-SSDRSALLKSKLRALLTAPR-OH [human pro-ANF 79-98]
half maximal activation (ED50) of guanylate cyclase activity [1]: 10 nM

H-NPMYNAVSNADLMDFKNLLDHLEEKMPLED-OH [human pro-ANF 1-30]
half maximal activation (ED50) of guanylate cyclase activity [1]: 10 nM
